Data as given in US6624317B1, “Taxoid conjugates as antimitotic and antitumor agents” (priority 2000, dated 2003).
pEC50: −log10 of the molar value. Read-outs that look alike come from different tables or passages of the source.

How the values were obtained:
PAX-22 = experiment: cytotoxicity in paclitaxel-resistant 1A9 sub-line PAX-22; assay type: cell-based, human; conditions: PAX-22 paclitaxel-resistant 1A9 sub-line
Description: (§1) Biological Assay. The in vitro cytotoxicity assay was carried out according to procedures described in Rubinstein et al. (P. Ferguson et al., Cancer Res. 1988, 48, 5956-5964). […] The human tumor cell line panel consisted of epiderimoid carcinoma of the nasopharynx (KB), lung carcinoma (A-549), ileocecal carcinoma (HCT-8), renal cancer (CAKI-1), breast cancer (MCF-7), melanoma cancer (SKMEL-2), and ovarian cancer (1A9). The drug resistant cell line panel consisted of three KB-derivatives, -7d, -CPT, and -VCR. The properties of these cells are described elsewhere (P. Ferguson et al., Cancer Res. 1988, 48, 5956-5964; D. Beidler et al., Cancer Res. 1996, 56, 345-353). […] They were a generous gift of Dr. P. Giannakakou (P. Giannakakou et al., J. Biol. Chem. 1997, 27, 17118-17125). Cells were cultured at 37° C. in RPMI-1640 with 100 ug/mL kanamycin and 10% (v/v) fetal bovine serum in a humidified atmosphere containing 5% CO2. Initial seeding densities varied among the cell lines to ensure a final absorbance of 1-2.5 A562 units. Drug exposure was for 3 days, and the ED50 value, the drug concentration that reduced the absorbance by 50%, was interpolated from dose-response data.
(§2) The newly synthesized taxoid-4′-O-demethyl epipodophyllotoxin conjugates were evaluated in house using standard cytotoxicity assays in human tumor (HTCL) and drug-resistant (DRCL) cell lines. Reference compounds were paclitaxel (1), cephalomannine (2), and epipodophyllotoxins [etoposide (5) and GL-331 (7), see FIG. 1]. The HTCL panel was comprised of KB, A549, HCT-8, CAKI-1, MCF-7, SK-MEL-2, and 1A9 cell lines. Two paclitaxel-resistant 1A9 sub-lines designated as PAX-10 and PAX-22 were also tested as part of the DRCL panel. Other resistant-cell lines were KB derivatives expressing various mechanisms or multi-drug resistance as described elsewhere (P. Ferguson et al., Cancer Res. 1988, 48, 5956-5964; D. Beidler et al., Cancer Res. 1996, 56, 345-353).

PAX-10 = experiment: cytotoxicity in paclitaxel-resistant 1A9 sub-line PAX-10; assay type: cell-based, human; conditions: PAX-10 paclitaxel-resistant 1A9 sub-line
Description: as §1, §2

KB-VCR = experiment: cytotoxicity in drug resistant cell line KB-VCR; assay type: cell-based, human; conditions: KB-VCR drug resistant KB derivative
Description: as §1, §2

KB-7d = experiment: cytotoxicity in drug resistant cell line KB-7d; assay type: cell-based, human; conditions: KB-7d drug resistant KB derivative
Description: as §1, §2

ovarian cancer (1A9) = experiment: in vitro cytotoxicity assay, 1A9; conditions: read-out: Cytotoxicity (ED50) 1A9 (OVCAR)
Description: as §1

[1] = test system: epiderimoid carcinoma of the nasopharynx (KB); experiment: in vitro cytotoxicity assay, KB; assay type: cell-based, human; conditions: drug exposure 3 days
Description: as §1

lung carcinoma (A-549) = experiment: in vitro cytotoxicity assay, A549; conditions: read-out: Cytotoxicity (ED50) A549
Description: as §1

KB-CPT = experiment: cytotoxicity in drug resistant cell line KB-CPT; assay type: cell-based, human; conditions: KB-CPT drug resistant KB derivative
Description: as §1, §2

[2] = test system: ileocecal carcinoma (HCT-8); experiment: in vitro cytotoxicity assay, HCT-8; conditions: read-out: Cytotoxicity (ED50) HCT-8
Description: as §1

[3] = test system: protein-linked DNA breaks (PLDB); conditions: drug treated cells; earlier work; cited from earlier work
renal cancer (CAKI-1) = experiment: in vitro cytotoxicity assay, CAKI-1; conditions: read-out: Cytotoxicity (ED50) CAKI-1
Description: as §1

[4] = test system: melanoma cancer (SKMEL-2); experiment: in vitro cytotoxicity assay, SK-MEL-2; conditions: read-out: Cytotoxicity (ED50) SK-MEL-2
Description: as §1

breast cancer (MCF-7) = experiment: in vitro cytotoxicity assay, MCF-7; conditions: read-out: Cytotoxicity (ED50) MCF-7
Description: as §1

[5] = test system: Cellular protein-DNA complex formation; experiment: Protein-linked DNA break assay (cellular protein-DNA complex formation); assay type: cell-based; conditions: for Cellular protein-DNA complex formation: Etoposide given as 100, NA^1 not active at 50 uM, NA^2 not active at 100 uM
Excerpt: (§3) Protein-Linked DNA Break and Topoisomerase 11 Activity Assays. The procedures were done according to detailed published methods (K. Bastow et al., Bioorg. Med. Chem. 1997, 5, 1481-1488).

Topoisomerase II = Topoisomerase II activity assay (inhibition of topo II in vitro); assay type: biochemical; conditions: NA^1 not active at 50 uM, NA^2 not active at 100 uM
Excerpt: as §3

[6] = test system: paclitaxel resistant cells; experiment: cytotoxicity against paclitaxel resistant cells (overall); assay type: cell-based, human; conditions: compared with the unconjugated components, Table 3
Description: as §1, §2

[7] = test system: human KB and DU-145 tumor cells in nude mice; conditions: earlier work; cited from earlier work
[8] = test system: Non-small cell lung cancer cell lines; experiment: NCI human tumor cell lines, NSCL; assay type: cell-based; conditions: average over all cell lines of the tumor type; data provided by the NCI
[9] = test system: Central nervous system cancer cell lines; experiment: NCI human tumor cell lines, CNS; assay type: cell-based; conditions: average over all cell lines of the tumor type; data provided by the NCI
melanoma cell lines = experiment: NCI human tumor cell lines, melanoma; assay type: cell-based; conditions: average over all cell lines of the tumor type; data provided by the NCI
ovarian cell lines = experiment: NCI human tumor cell lines, ovarian; assay type: cell-based; conditions: average over all cell lines of the tumor type; data provided by the NCI
prostate cell lines = experiment: NCI human tumor cell lines, prostate; assay type: cell-based; conditions: average over all cell lines of the tumor type; data provided by the NCI
[10] = test system: human tumor (HTCL) cell lines; experiment: standard cytotoxicity assays in human tumor cell lines (HTCL panel, overall); conditions: summary of Table 2
Description: as §1
The newly synthesized taxoid-4′-O-demethyl epipodophyllotoxin conjugates were evaluated in house using standard cytotoxicity assays in human tumor (HTCL) and drug-resistant (DRCL) cell lines. […]

leukemia cell lines = experiment: NCI human tumor cell lines, leukemia; assay type: cell-based; conditions: average over all cell lines of the tumor type; data provided by the NCI
Colon cell lines = experiment: NCI human tumor cell lines, colon; assay type: cell-based; conditions: average over all cell lines of the tumor type; data provided by the NCI
[11] = 1A9 (OVCAR), drug exposure 3 days
[12] = SK-MEL-2, drug exposure 3 days, NA = not active
[13] = A549, drug exposure 3 days, NA = not active
[14] = HCT-8, drug exposure 3 days, NA = not active

SMILES	Resistance Fold PAX-22 (PAX-22)	Resistance Fold PAX-10 (PAX-10)	Resistance Fold KB-VCR (KB-VCR)	Resistance Fold KB-7d (KB-7d)	pEC50 (ovarian cancer (1A9); Homo sapiens, 72 h)	Cytotoxicity (ED50) KB [1] [nM]	pEC50 (lung carcinoma (A-549); Homo sapiens, A549, 72 h)	Resistance Fold KB-CPT (KB-CPT)	pEC50 ([2]; Homo sapiens, HCT-8, 72 h)	Cellular protein-DNA complex formation [5]	Inhibition of Topo II IC100 (Topoisomerase II) [µM]	pEC50 (renal cancer (CAKI-1); CAKI-1, drug exposure 3 days)	pEC50 (ovarian cancer (1A9); [11])	pEC50 [4, 12]	pEC50 (lung carcinoma (A-549); [13])	pEC50 (breast cancer (MCF-7); MCF-7, drug exposure 3 days)	pEC50 [2, 14]	other results
CC(=O)O[C@H]1C(=O)[C@@]2(C)[C@H]([C@H](OC(=O)c3ccccc3)[C@]3(O)C[C@H](OC(=O)[C@H](O)[C@@H](NC(=O)c4ccccc4)c4ccccc4)C(C)=C1C3(C)C)[C@]1(OC(C)=O)CO[C@@H]1C[C@@H]2O [Paclitaxel, paclitaxel, reference compound]	24	24	15	1	8.70	16	8.22	1	7.89									
CC[C@@]1(O)C(=O)OCc2c1cc1n(c2=O)Cc2c-1nc1ccccc1c2C=Nc1ccccc1N[C@@H]1c2cc3c(cc2[C@@H](c2cc(OC)c(O)c(OC)c2)[C@H]2C(=O)OC[C@@H]21)OCO3 [Compound 4]																		induction of protein-linked DNA breaks (PLDB) (in words) [3]: induced protein-linked DNA breaks (PLDB) in a concentration dependent manner
C/C=C(\C)C(=O)N[C@@H](c1ccccc1)[C@@H](O)C(=O)O[C@H]1C[C@@]2(O)[C@@H](OC(=O)c3ccccc3)[C@@H]3[C@]4(OC(C)=O)CO[C@@H]4C[C@H](O)[C@@]3(C)C(=O)[C@H](OC(C)=O)C(=C1C)C2(C)C [Cephalomannine, cephalomannine, reference compound]		40			8.52	2	8.05		7.33									pEC50 (renal cancer (CAKI-1); Homo sapiens, CAKI-1, 72 h): < 6.52; pEC50 ([4]; Homo sapiens, SK-MEL-2, 72 h): 6.87; pEC50 (breast cancer (MCF-7); Homo sapiens, MCF7, 72 h): 6.78
COc1cc([C@@H]2c3cc4c(cc3[C@@H](O[C@@H]3O[C@@H]5CO[C@@H](C)O[C@H]5[C@H](O)[C@H]3O)[C@H]3COC(=O)[C@H]23)OCO4)cc(OC)c1O [Etoposide, etoposide, reference compound]	>16	>16	153	119	6.22	200	5.71	1	< 5.30	100%	100							pEC50 (renal cancer (CAKI-1); Homo sapiens, CAKI-1, 72 h): 5.66; pEC50 (breast cancer (MCF-7); Homo sapiens, MCF7, 72 h): < 5.30
C/C=C(\C)C(=O)N[C@@H](c1ccccc1)[C@@H](OC(=O)c1ccc(C=N[C@@H]2c3cc4c(cc3[C@@H](c3cc(OC)c(O)c(OC)c3)[C@H]3C(=O)OC[C@@H]32)OCO4)cc1)C(=O)O[C@H]1C[C@@]2(O)[C@@H](OC(=O)c3ccccc3)[C@@H]3[C@]4(OC(C)=O)CO[C@@H]4C[C@H](O)[C@@]3(C)C(=O)[C@H](OC(C)=O)C(=C1C)C2(C)C [Compound 14]		>36				30						< 5.30	6.85	5.05	6.15	5.91	5.56	
C/C=C(\C)C(=O)N[C@@H](c1ccccc1)[C@@H](OC(=O)c1ccc(C=Nc2ccc(N[C@@H]3c4cc5c(cc4[C@@H](c4cc(OC)c(O)c(OC)c4)[C@H]4C(=O)OC[C@@H]43)OCO5)cc2)cc1)C(=O)O[C@H]1C[C@@]2(O)[C@@H](OC(=O)c3ccccc3)[C@@H]3[C@]4(OC(C)=O)CO[C@@H]4C[C@H](O)[C@@]3(C)C(=O)[C@H](OC(C)=O)C(=C1C)C2(C)C [Compound 16]		7.5				1400						< 5.00	5.95	< 4.40	5.45	< 5.30	< 4.40	activity against paclitaxel resistant cells (in words) [6]: enhanced activity against paclitaxel resistant cells
CC[C@@]1(O)C(=O)OCc2c1cc1n(c2=O)Cc2c-1nc1ccccc1c2C=Nc1ccc(N[C@@H]2c3cc4c(cc3[C@@H](c3cc(OC)c(O)c(OC)c3)[C@H]3C(=O)OC[C@@H]32)OCO4)cc1 [Compound 3]																		induction of protein-linked DNA breaks (PLDB) (in words) [3]: induced protein-linked DNA breaks (PLDB) in a concentration dependent manner; in vivo antitumor activity (in words) [7]: more active than either etoposide or CPT
COc1cc([C@@H]2c3cc4c(cc3[C@@H](Nc3ccc([N+](=O)[O-])cc3)[C@H]3COC(=O)[C@H]23)OCO4)cc(OC)c1O [GL-331, reference compound]	8	13	3	2		1860		1		134 +/− 7%	50	5.74	6.70	5.23	6.32	5.03	5.47	
COc1cc([C@@H]2c3cc4c(cc3[C@@H](Nc3ccc(N=Cc5ccc(C(=O)O[C@@H](C(=O)O[C@H]6C[C@@]7(O)[C@@H](OC(=O)c8ccccc8)[C@@H]8[C@]9(OC(C)=O)CO[C@@H]9C[C@H](O)[C@@]8(C)C(=O)[C@H](OC(C)=O)C(=C6C)C7(C)C)[C@@H](NC(=O)c6ccccc6)c6ccccc6)cc5)cc3)[C@H]3COC(=O)[C@H]23)OCO4)cc(OC)c1O [Compound 15]	8	>17	8	1		230		1		25 +/− 11%	100	< 5.40	6.52	< 4.40	5.55	5.73	< 7.00	log GI50 NSCL [8]: −5.50; log GI50 CNS [9]: −5.54; log GI50 melanoma (melanoma cell lines): −5.01; intracellular poisoning / stimulation of protein-DNA breaks in cells (in words) ([5]; in cells): intracellular poisons; log GI50 ovarian (ovarian cell lines): −4.95; activity against paclitaxel resistant cells (in words) [6]: enhanced activity against paclitaxel resistant cells; log GI50 prostate (prostate cell lines): −5.06; cytotoxicity in human tumor cell lines (in words) [10]: exhibited different cytotoxic activity from both precursors; log GI50 leukemia (leukemia cell lines): −6.02; log GI50 Colon (Colon cell lines): −5.12
